{"source": "paper PMC12299847", "about": "“Macroalgae-Inspired Brominated Chalcones as Cosmetic Ingredients with the Potential to Target Skin Inflammaging” (Marine Drugs, 2025)", "key": {"HaCaT keratinocytes": {"tested_on": "HaCaT keratinocytes", "assay": "Resazurin cell viability assay in HaCaT keratinocytes", "format": "cell-based, human", "settings": "HaCaT, 24 h", "description": "(§1) To evaluate the effects of chalcones 1–7 on cell viability after 24 h, a resazurin assay was performed using two cell lines: human HaCaT keratinocytes (HaCaT, CLS 300493), representing the epidermal layer, and murine RAW 264.7 macrophages (RAW 264.7, ATCC TIB-71), which model immune cells involved in dermal inflammatory responses. For the keratinocyte cell line, all seven brominated and non-brominated chalcones were tested across a concentration range from 2.5 μM to 125 μM (Figure 2).\n(§2) Human keratinocytes (HaCaT, CLS 300493, Eppelheim, Germany) were cultured in DMEM supplemented with heat-inactivated FBS, and a penicillin and streptomycin antibiotic solution. The cell culture of keratinocytes was washed with 6 mL of phosphate buffer solution with 0.05% EDTA (Sigma-Aldrich, St. Louis, MO, USA) and detached using 3 mL of 0.05% trypsin + 0.02% EDTA in PBS solution when the cells reached 70–80% confluence in cell culture flasks. DMEM was also used to cultivate the mouse macrophage cell line (RAW 264.7, ATCC TIB-71, Manassas, VA, USA) together with 10% (v/v) non-inactivated FBS, 1.5 g/L sodium bicarbonate, and 100 U/mL penicillin and 100 μg/mL streptomycin stock (antibiotic solution). The macrophage culture was mechanically detached using a cell scraper, and the final amount of DMEM media with the cells was sub-cultured in a 1:10 ratio to the cellular suspension.\n(§3) The resazurin reduction assay was employed to evaluate the metabolic activity of human epidermal keratinocyte (HaCaT) and murine macrophage (RAW264.7) cell lines, as outlined in a previous study. In brief, HaCaT cells (1.0 × 10^5 cells/mL) and RAW264.7 cells (5.0 × 10^4 cells/mL) were seeded in 96-well plates (200 μL/well) and incubated overnight at 37 °C to allow for cell attachment. Following this, the cells were treated with different concentrations of the test compounds and kept at 37 °C for 24 h. After 20 h, resazurin (500 μM in sterile phosphate buffer solution, pH 7.4) was added to each well to achieve a final concentration of 50 μM, followed by an additional incubation of 4 h. Absorbance was then measured at wavelengths of 570 and 620 nm using a SpectraMax Plus 384 absorbance microplate spectrophotometer (Molecular Devices, San Jose, CA, USA). Each experiment was conducted in triplicate, with a minimum of three independent assays. The results were graphically presented as the percentage of cell viability versus chemical concentration, relative to the control.\n(§4) Figure 2 Cytotoxicity of chalcones 1–7 using a resazurin reduction assay in HaCaT cells by comparison with the control. Bar graphs represent the mean ± SEM of at least three independent experiments performed in triplicate. Statistical analysis: one ANOVA with Dunnett’s multiple comparisons test, where p < 0.05 was considered significant when compared to the control condition. * p < 0.05, ** p < 0.01, and *** p < 0.0005."}, "[1]": {"assay": "Resazurin cell viability assay in HaCaT keratinocytes", "format": "cell-based, human", "settings": "human, HaCaT keratinocytes, resazurin, read-out: IC50 (cell viability, cytotoxicity)", "description": "as §1, §2, §3, §4"}, "[2]": {"tested_on": "NO production in LPS-stimulated RAW 264.7 macrophages", "assay": "NO production (Griess assay) in LPS-stimulated macrophages", "format": "cell-based, murine", "settings": "RAW 264.7, LPS 100 ng/mL; for IC50: Mus musculus, RAW264.7, 24 h, Griess", "description": "The anti-inflammatory potential of chalcones 1–7 was evaluated in macrophages cultured in the presence or absence (control) of LPS, as depicted in Figure 4. Under basal conditions (unstimulated, control), macrophages produce low levels of nitrites (≈12%). […] Each chalcone was tested at concentrations previously established as non-cytotoxic in macrophages, trying to ensure that observed changes in NO levels were not due to reduced cell viability.\nThe production of NO was evaluated by measuring nitrite accumulation in culture supernatants using the previously described Griess assay. Cells were seeded at a concentration of 5.0 × 10^4 cells/mL in a 96-well plate (200 μL/well) and allowed to stabilize overnight at 37 °C. Afterwards, the cells were treated with different concentrations of compound solutions and pre-incubated for 1 h at 37 °C. Subsequently, an LPS in PBS solution was added to each well, achieving a final concentration of 100 ng/mL, and the plate was left to incubate for 24 h. An amount of 150 μL of the cell culture supernatant was then transferred to a fresh 96-well plate, and an equal amount of Griess reagent [comprising a 1:1 mixture of 1% (w/v) sulphanilamide in 5% (v/v) phosphoric acid and 0.1% (w/v) naphthylethylenediaminedihydrochloride] was added. Following a 30 min incubation at room temperature in the dark, the absorbance was recorded at 550 nm using a Biotek Synergy HT plate reader (Biotek, CA, USA). The nitrite concentration in the supernatants was determined by comparing the absorbance of each sample to a sodium nitrite standard curve. The results, obtained from at least three independent experiments performed in duplicate, were expressed as a percentage of NO production by cells versus chemical concentration, relative to LPS condition (100%).\nFigure 4 NO production by macrophages treated with LPS (100 ng/mL) or not (control) in the presence of chalcones 1–7. Results are expressed as a percentage of NO production by cells treated with LPS (100 ng/mL). Each value represents the mean ± SEM of four independent experiments in duplicate. Statistical analysis: one ANOVA with Dunnett’s multiple comparisons test, where p< 0.05 was considered significant. *** p < 0.005, relative to the control, and ^# p < 0.05, ^## p < 0.01, ^### p < 0.0005, and ^#### p < 0.0001, relative to LPS condition."}, "[3]": {"tested_on": "iNOS protein levels in RAW264.7 macrophages", "assay": "Western blot analysis of iNOS expression in LPS-stimulated macrophages", "format": "cell-based, murine", "settings": "for iNOS expression level: normalized against LPS condition", "description": "To investigate the underlying mechanism of action of the most promising brominated chalcones (1 and 2), their effects on iNOS protein levels were assessed in LPS-stimulated macrophages at different time points (4, 6, and 24 h). The non-treated (NT) condition, consisting of macrophages stimulated with LPS but receiving no chalcone treatment, was used as the reference for maximal iNOS induction under inflammatory conditions and served as a positive control. The selected concentrations (7.5 μM and 15 μM) were selected based on chalcones 1 and 2 cytocompatibility (Figure 3) and efficacy in reducing NO production (Figure 4). Since NO production is a direct consequence of iNOS enzymatic activity, where the enzyme catalyzes the conversion of L-arginine to NO following inflammatory stimulation such as LPS, this provides a functional readout of iNOS expression and activity.\nHere, we focused on validating iNOS expression at the protein level by western blot (Figure 6). While gene-level expression was not assessed, it is well established that LPS stimulation induces both iNOS transcription and translation in RAW 264.7 macrophages. Moreover, changes observed at the protein level are often closely associated with upstream transcriptional or translational modulation. Therefore, quantifying iNOS protein levels provides a biologically relevant measure of the chalcones’ inhibitory effects on this key inflammatory mediator.\nThe expression of the iNOS enzyme was analyzed by western blot. RAW264.7 macrophages were seeded at a density of 1 × 10^6 cells/well in a 6-well plate and incubated for 24 h at 37 °C in a humidified atmosphere containing 5% CO2. After incubation, cells were treated with 7.5 µM or 15 µM of the most promising chalcones (1 and 2) for 30 min, followed by the addition of LPS to have a final concentration of 100 ng/mL. Cells were then incubated for 4, 6, or 24 h. At each time point, cells were washed with PBS and lysed in RIPA buffer. The lysates were collected in Eppendorf tubes and kept on ice, with intermittent vortexing to ensure thorough lysis. Samples were centrifuged at 18,000× g for 16 min at 4 °C, and the supernatant was collected. Total protein concentration was determined using the Pierce™ BCA Protein Assay Kit (Thermo Scientific, 23225, Waltham, MA, USA), following the manufacturer’s instructions. Equal amounts of protein (25 µg) were loaded onto Bolt™ 8% Bis-Tris Mini Protein Gels (Invitrogen™, NW00087BOX, Waltham, MA, USA) and separated via electrophoresis. Proteins were then transferred onto nitrocellulose membranes (Invitrogen™, IB24002) using the iBlot® 2 dry transfer system (Invitrogen™, Waltham, MA, USA). After transfer, membranes were sectioned to separate the iNOS bands from those of the housekeeping protein GAPDH. Membranes were blocked for 1 h at room temperature in TBS-T containing 5% BSA and subsequently incubated overnight at 4 °C with primary antibodies against iNOS (Cell Signaling Technology, 16713120S, Danvers, MA, USA) or GAPDH (Abcam, ab181602, Cambridge, UK), diluted in TBS-T with 1% BSA. On the following day, membranes were washed three times with TBS-T and incubated for 1 h at room temperature with an HRP-conjugated secondary antibody (Cell Signaling Technology, 7074S) diluted in TBS-T with 1% BSA. After three additional washes, signal detection was performed using Clarity™ Western ECL Substrate (Bio-Rad, 1705061, Hercules, CA, USA), and chemiluminescent signals were acquired using the Odyssey FC imaging system (LI-COR, Lincoln, NE, USA). Densitometric analysis of iNOS bands was performed using Image Studio™ Software (version 5.2, LI-COR, Lincoln, NE, USA), with values normalized to the corresponding GAPDH bands.\nFigure 6 iNOS expression level after treatment of 4, 6, and 24 h with chalcones 1 and 2 in macrophage cell line. Results are expressed as volume arbitrary unit (A). […]"}, "Nrf2": {"tested_on": "Nrf2", "assay": "KeratinoSens assay, Nrf2 luciferase reporter", "format": "cell-based, human", "settings": "100 µM, positive control", "description": "The KeratinoSens™ assay was originally developed to assess the skin sensitization potential of Nrf2 activation, but it has also been utilized to evaluate the ability of natural compounds to induce this transcription factor [46, 47]. In this study, we assessed the capacity of chalcones 1 and 2 to activate Nrf2 after 24 and 48 h (Figure 8A–F).\nSelected compounds (chalcones 1 and 2), and the positive control, DMF, were dissolved in sterile DMSO. Intermediate dilutions were prepared in culture medium, including the final concentration to be added to the 96-well plate, with a final volume of 200 µL per well. The KeratinoSens™ assay was conducted as previously described. In brief, cells were seeded at a density of 10,000 cells per well in 96-well white opaque plates (Greiner Bio-One GmbH, cat. no. 655083, Kremsmünster, Austria) and incubated for 24 h. The medium was then replaced with fresh medium containing 1% FBS and the test compounds, and cells were incubated for an additional 24 and 48 h. DMF was used as the positive control since it is a known Nrf2 activator. Cell viability was assessed in the same cells using resazurin. After 20 or 44 h of exposure to the test compounds, 50 µM of resazurin solution (in sterile PBS) was added to each well, and the plates were incubated for 4 h at 37 °C, 5% CO2 Following the resazurin incubation, the supernatant was transferred to a transparent 96-well plate, and absorbance was measured at 570 and 620 nm using a Synergy HT multi-mode microplate reader (BioTek, Bad Friedrichshall, Germany). To measure luciferase activity, cells in the white opaque 96-well plates were washed with 1× PBS. An equal volume of 1× PBS and lysis buffer (One-GLO Luciferase, cat. no. E6130, Promega, Madison, WI, USA) was added to the wells, and the plates were incubated for 20 min at room temperature. Luminescence was then measured using a FLUOstar OMEGA Microplate Reader (BMG Labtech GmbH, Ortenberg, Germany).\nFigure 8 Nrf2 activation using the KeratinoSens™ assay in HaCaT cells transfected with an Nrf2 luciferase reporter construct, incubated for 24 h (A–C) or 48 h (D–F) with chalcones 1 and 2. DMF was used as a positive control. Data represent the results from four independent experiments. Non-linear regression analysis was performed using GraphPad Prism v.9.0.0 for Windows. The blue line represents the results of cell viability (% regarding the control) and the green line represents fold induction. Statistical analysis: one ANOVA with Dunnett’s multiple comparisons test, where significance includes. * p < 0.05, ** p < 0.01, *** p < 0.0005, and **** p < 0.0001."}}, "note": "Structures can show the parent of a compound that is named as a salt."}
{"compound": "COc1ccc(/C=C/C(=O)c2ccc(OC)c(OC)c2)cc1OC", "note": "[Chalcone 3]", "values": [{"measurement": "reduction in cell viability", "setting": "HaCaT keratinocytes; at 62.5 and 125 μM", "result": "> 50", "unit": "%"}, {"measurement": "IC50 at 24 h", "setting": "[1]", "result": "62.1 ± 1.07", "unit": "µM"}, {"measurement": "IC50", "setting": "[2]", "result": "4.73 ± 0.67", "unit": "µM"}, {"measurement": "concentration that reduced NO production to levels similar to the control", "setting": "[2]; 24 h", "result": 125, "unit": "µM"}]}
{"compound": "COc1ccc(/C=C/C(=O)c2cc(OC)c(OC)cc2Br)cc1OC", "note": "[Chalcone 2]", "values": [{"measurement": "iNOS expression level", "setting": "[3]; 7.5 µM, 4 h", "result": 38.9, "unit": "%"}, {"measurement": "maximum iNOS suppression", "setting": "[3]; 7.5 µM, 24 h", "result": "~ 80%"}, {"measurement": "iNOS expression level", "setting": "[3]; 7.5 µM, 24 h", "result": 20.2, "unit": "%"}, {"measurement": "iNOS expression level", "setting": "[3]; 15 µM, 4 h", "result": 20.5, "unit": "%"}, {"measurement": "iNOS expression level", "setting": "[3]; 15 µM, 6 h", "result": 5.7, "unit": "%"}, {"measurement": "iNOS suppression", "setting": "[3]; 15 µM, 6 h, stable up to 24 h", "result": "~ 95%"}, {"measurement": "iNOS expression level", "setting": "[3]; 15 µM, 24 h", "result": 6.1, "unit": "%"}, {"measurement": "IC50", "setting": "[2]", "result": "0.77 ± 0.31", "unit": "µM"}]}
{"compound": "COc1ccc(/C=C2\\CCc3cc(OC)c(OC)cc3C2=O)cc1OC", "note": "[Chalcone 7]", "values": [{"measurement": "maximal reduction in viability", "setting": "HaCaT keratinocytes; significant effects only at 62.5 μM and 125 μM", "result": "≤ 15", "unit": "%"}, {"measurement": "reduction of NO production in LPS-stimulated cells", "setting": "[2]; 24 h", "result": 12, "unit": "%"}]}
{"compound": "COC(=O)/C=C/C(=O)OC", "note": "[DMF, dimethyl fumarate, reference compound]", "values": [{"measurement": "Nrf2 activation, fold increase", "setting": "Nrf2", "result": 8.36, "unit": "fold"}]}
